These results are taken from patent US20130072534A1 (LABORATORIOS DEL DR. ESTEVE, S.A., priority 2009, published 2013).

The subject of the experiment is formalin-induced nociceptive behaviour. Kind of experiment: Formalin test in mice (phase II licking/biting of the injected paw). To be noted: i.p.; for efficacy of analgesic effect (in words): formalin test. The experiment is classed as in vivo, Male CD-1 mice.

Method: To assess the reliability of the efficacy and potency of the compounds and combinations tested, the nociceptive response was assessed by the formalin test. The behaviour analysed was the total time spent in licking and biting of the injected paw measured during the 15-30 min period (phase II) (Dubuisson D., et al. Pain 1977, 4, 161 and Rosland et al., Pain 1990, 42, 235).
All drugs prepared at various concentrations were dissolved in 0.5% hydroxypropyl methylcellulose in distilled water and coadministered in a volume of 10 ml/kg per mice through the intraperitoneal (i.p.) route. Control animals received the same volume of vehicle.
Male CD-1 mice weighing between 20 and 25 g (Charles River Laboratories) are used for all the experiments. The animals were housed in a temperature-controlled room (21±1° C.) with air exchange every 20 min and an automatic 12-h light/dark cycle (light from 08.00 to 20.00 h). They were fed a standard laboratory diet and tap water ad libitum until the beginning of the experiments. The experiments were performed during the light phase (09.00-15.00 h). Naive animals were used throughout.
A concentrated formalin solution was diluted with saline to the appropriate concentration (2.5%). Formalin test was performed as described in Rosland et al., Pain 1990, 42, 235, with slight modifications. 20 microliters of the formalin solution was injected subcutaneously (s.c.) into the dorsal surface of the right hind paw of the mouse, using a Hamilton microsyringe with a 301/2-gauge needle. The nociceptive behaviour (licking and/or biting) was recorded from 15 to 35 min after formalin injection as an indicator of the pain response.
The method is based on the comparison of the effect of several doses of a combination at a determined ratio with respect to the effects achieved using different doses of each of the two agents. […] The theoretical additive dose (Zadd) for a combination was then calculated and compared with the experimental ED50 of the combination (Zt) as described in Tallarida, Drug synergism 2001, 298, 865-872. […]

Consider `COc1ccc(C(CN(C)C)C2(O)CCCCC2)cc1` (racemic) [Venlafaxine, (rac)-1-[2-dimethylamino-1-(4-methoxyphenyl)-ethyl]cyclohexanol], for which the “efficacy of analgesic effect (in words)” value is on record as “full efficacy”.
Take `Cc1ccc(-c2cc(C(F)(F)F)nn2-c2ccc(S(N)(=O)=O)cc2)cc1` [celecoxib, 4-[5-(4-methylphenyl)-3-(trifluoromethyl)pyrazol-1-yl]benzenesulfonamide]: the “efficacy of analgesic effect (in words)” value is recorded as “ceiling effect”. Besides, the “maximum efficacy (analgesic effect)” value (formalin test (2.5% formalin s.c. into hind paw)) is 45.78%.
